Measurements: US9708368B2, “Linear peptide antibiotics” (priority 2012, dated 2017)
Values after ≈ are worked out from the molar mass of the structure shown. Square brackets hold non-standard residues; d marks the D form. Peptide text beside a SMILES is read from it. * marks the point of attachment. ξ: configuration not given here. boroAla((+)-pinanediol) = C[C@H](N*)B1O[C@@H]2C[C@@H]3C[C@@H](C3(C)C)[C@]2(C)O1; Biphenylcarbonyl(4'-Bu) = CCCCc1ccc(-c2ccc(C(=O)*)cc2)cc1; X1 = C[C@H](N*)B1OC2C[C@@H]3C[C@@H](C3(C)C)[C@]2(C)O1; Benzoyl(4-(4-Cl-Ph)) = O=C(c1ccc(-c2ccc(Cl)cc2)cc1)*; Lys(Me3) = C[N+](C)(C)CCCC[C@H](N)C(=O)O; Pro(4R-NH2) = N[C@H]1CN[C@H](C(=O)O)C1; NMeY = CN[C@@H](Cc1ccc(O)cc1)C(=O)O; Gly(cPr) = N[C@H](C(=O)O)C1CC1; Thr(3ξ) = CC(O)[C@H](N)C(=O)O; Decanoyl = CCCCCCCCCC(=O)*; boroAla = C[C@H](N*)B(O)O; Orn = NCCC[C@H](N)C(=O)O; Dab = NCC[C@H](N)C(=O)O; Abu = CC[C@H](N)C(=O)O; Dap = NC[C@H](N)C(=O)O; βAla = NCCC(=O)O

Assays:
[1] = test system: methicillin resistant Staphylococcus aureus (MRSA) strain USA300 (NRS384); conditions: Method B, 35° C., 22 hours
[2] = target: S. aureus SPase (Staphylococcus aureus, UniProt P0A070); assay: biochemical
[3] = test system: Escherichia coli strain MC4100 IMP-4213, which harbors an LptD mutation; conditions: Method B; E. coli MC4100 IMP-4213 (LptD mutation); 35° C., 22 hours
Description: In vitro antimicrobial activity of each compound was determined by measuring minimal inhibitor concentrations (MICs) using the broth micro-dilution technique as approved by the Clinical and Laboratory Standards Institute (CLSI). […] Bacterial inocula were prepared by scraping cells into 1 mL of testing media (cation adjusted Mueller Hinton Broth supplemented with 0.002% v/v Tween-80) and diluting to a final OD600 nm of 0.01.
Test compounds were prepared in DMSO at a concentration of 10 mg/ml. […] Bacterial inocula were added to the two fold serial dilutions of test compounds to a final density of OD OD600 nm of 0.0005 and incubated stationarily at 35° C. for 22 hours, after which the plates were examined visually.

[4] = target: E. coli SPase (Escherichia coli, UniProt P00803); assay: Biochemical SPase activity assay (fluorogenic peptide substrate), E. coli enzyme

Row | SMILES | MIC (μg/mL) S. aureus [1] [µg/mL] | IC50 [2] [µM] | MIC (μg/mL) E. coli [3] [µg/mL] | IC50 [4] [µM]
1 | CCCCc1ccc(-c2ccc(C(=O)N[C@@H](CCCCN)C(=O)N[C@@H](CCCCN)C(=O)N[C@@H](C)C(=O)N[C@@H](CC(C)C)C(=O)N[C@@H](C)B3OC4C[C@@H]5C[C@@H](C5(C)C)[C@]4(C)O3)cc2)cc1 (stereo partly shown) [Compound 146] ({Biphenylcarbonyl(4'-Bu)}-KKAL-X1) | 0.4 (≈ 0.444 µM) | 0.16 | 0.25 (≈ 0.278 µM) | 0.012
2 | CCCCc1ccc(-c2ccc(C(=O)N[C@@H](CCCCN)C(=O)N[C@H](C(=O)N[C@H](C(=O)N[C@@H](CCCCN)C(=O)N[C@@H](C)B(O)O)C3CC3)C(C)O)cc2)cc1 (stereo partly shown) [Compound 147] ({Biphenylcarbonyl(4'-Bu)}-K[Thr(3ξ)][Gly(cPr)]K-boroAla) | 0.25 (≈ 0.321 µM) | 0.098 | 0.31 (≈ 0.398 µM) | 0.014
3 | CCCCc1ccc(-c2ccc(C(=O)N[C@@H](CCN)C(=O)N[C@H](C(=O)N[C@@H](C)C(=O)N[C@@H](CCCCN)C(=O)N[C@@H](C)B3OC4C[C@@H]5C[C@@H](C5(C)C)[C@]4(C)O3)C(C)O)cc2)cc1 (stereo partly shown) [Compound 148] ({Biphenylcarbonyl(4'-Bu)}-[Dab][Thr(3ξ)]AK-X1) | 0.23 (≈ 0.267 µM) | 0.14 | 0.4 (≈ 0.465 µM) | 0.0074
4 | CCCCc1ccc(-c2ccc(C(=O)N[C@@H](CN)C(=O)N[C@H](C(=O)N[C@@H](C)C(=O)N[C@@H](CCCCN)C(=O)N[C@@H](C)B3O[C@@H]4C[C@@H]5C[C@@H](C5(C)C)[C@]4(C)O3)[C@@H](C)O)cc2)cc1 [Compound 149] ({Biphenylcarbonyl(4'-Bu)}-[Dap]TAK-{boroAla((+)-pinanediol)}) | 0.28 (≈ 0.331 µM) | 0.129 | 0.31 (≈ 0.366 µM) | 0.0039
5 | CCCCc1ccc(-c2ccc(C(=O)N[C@@H](CCCN)C(=O)N[C@H](C(=O)N[C@@H](CC)C(=O)N[C@@H](CCCCN)C(=O)N[C@@H](C)B3OC4C[C@@H]5C[C@@H](C5(C)C)[C@]4(C)O3)C(C)O)cc2)cc1 (stereo partly shown) [Compound 150] ({Biphenylcarbonyl(4'-Bu)}-[Orn][Thr(3ξ)][Abu]K-X1) | 0.3 (≈ 0.338 µM) | 0.27 | 0.5 (≈ 0.563 µM) | 0.006
6 | CCCCc1ccc(-c2ccc(C(=O)N[C@@H](CCCCN)C(=O)N[C@@H](CCC(=O)O)C(=O)N[C@@H](C)C(=O)N[C@@H](CCCCN)C(=O)N[C@@H](C)B3O[C@@H]4C[C@@H]5C[C@@H](C5(C)C)[C@]4(C)O3)cc2)cc1 [Compound 151] ({Biphenylcarbonyl(4'-Bu)}-KEAK-{boroAla((+)-pinanediol)}) | 0.71 (≈ 0.775 µM) | 0.038 | 1.2 (≈ 1.31 µM) | 0.0088
7 | CCCCc1ccc(-c2ccc(C(=O)N[C@@H](CCCCN)C(=O)N3C[C@H](N)C[C@H]3C(=O)N[C@@H](C)C(=O)N[C@@H](CC(C)C)C(=O)N[C@@H](C)B(O)O)cc2)cc1 [Compound 152] ({Biphenylcarbonyl(4'-Bu)}-K[Pro(4R-NH2)]AL-boroAla) | 0.4 (≈ 0.534 µM) | 0.35 | 0.5 (≈ 0.667 µM) | 0.025
8 | C[C@H](NC(=O)[C@H](CC(N)=O)NC(=O)[C@H](C)NC(=O)[C@@H](NC(=O)[C@H](CCCCN)NC(=O)CCNC(=O)c1ccc(-c2ccc(Cl)cc2)cc1)[C@@H](C)O)B(O)O [Compound 154] ({Benzoyl(4-(4-Cl-Ph))-βAla}-KTAN-boroAla) | 2.8 (≈ 3.55 µM) | 0.0081 | 32 (≈ 40.6 µM) | 0.014
9 | CCCCc1ccc(-c2ccc(C(=O)N[C@@H](CCCN)C(=O)N[C@H](C(=O)N[C@@H](C)C(=O)N[C@@H](CCCCN)C(=O)N[C@@H](C)B(O)O)C(C)O)cc2)cc1 (stereo partly shown) [Compound 156] ({Biphenylcarbonyl(4'-Bu)}-[Orn][Thr(3ξ)]AK-boroAla) | 0.31 (≈ 0.419 µM) | 0.097 | 0.5 (≈ 0.676 µM) | 0.0055
10 | CCCCc1ccc(-c2ccc(C(=O)N[C@@H](CCCCN)C(=O)N(C)[C@@H](Cc3ccc(O)cc3)C(=O)N[C@@H](C)C(=O)N[C@@H](CCCCN)C(=O)N[C@@H](C)B(O)O)cc2)cc1 [Compound 157] ({Biphenylcarbonyl(4'-Bu)}-K[NMeY]AK-boroAla) | 2 (≈ 2.41 µM) | 1 | 4 (≈ 4.82 µM) | 0.13
11 | CCCCc1ccc(-c2ccc(C(=O)N[C@@H](CCCCN)C(=O)N3CCC[C@H]3C(=O)N[C@@H](C)C(=O)N[C@@H](CC(N)=O)C(=O)N[C@@H](C)B(O)O)cc2)cc1 [Compound 158] ({Biphenylcarbonyl(4'-Bu)}-KPAN-boroAla) | 5.7 (≈ 7.75 µM) | 0.4 | 5 (≈ 6.8 µM) | 0.033
12 | CCCCc1ccc(-c2ccc(C(=O)N[C@@H](CCCC[N+](C)(C)C)C(=O)N[C@H](C(=O)N[C@@H](C)C(=O)N[C@@H](CCCCN)C(=O)N[C@@H](C)B(O)O)[C@@H](C)O)cc2)cc1 [Compound 159] ({Biphenylcarbonyl(4'-Bu)}-[Lys(Me3)]TAK-boroAla) | 1 | 0.086 | 16 | 0.24
13 | CCCCc1ccc(-c2ccc(C(=O)N[C@H](CCCCN)C(=O)N[C@H](C(=O)N[C@@H](C)C(=O)N[C@@H](CCCCN)C(=O)N[C@@H](C)B(O)O)C(C)O)cc2)cc1 (stereo partly shown) [Compound 160] ({Biphenylcarbonyl(4'-Bu)}-[dK][Thr(3ξ)]AK-boroAla) | 2.8 (≈ 3.71 µM) | 0.9 | 64 (≈ 84.9 µM) | 2.1
14 | CCCCc1ccc(-c2ccc(C(=O)N[C@@H](CCCCN)C(=O)N[C@@H](CCN)C(=O)N[C@@H](C)C(=O)N[C@@H](CC(C)C)C(=O)N[C@@H](C)B(O)O)cc2)cc1 [Compound 161] ({Biphenylcarbonyl(4'-Bu)}-K[Dab]AL-boroAla) | 0.63 (≈ 0.854 µM) | 0.3 | 0.71 (≈ 0.962 µM) | 0.06
15 | CCCCc1ccc(-c2ccc(C(=O)N[C@@H](CN)C(=O)N[C@H](C(=O)N[C@@H](C)C(=O)N[C@@H](CCCCN)C(=O)N[C@@H](C)B(O)O)[C@@H](C)O)cc2)cc1 [Compound 162] ({Biphenylcarbonyl(4'-Bu)}-[Dap]TAK-boroAla) | 0.4 (≈ 0.562 µM) | 0.2 | 0.5 (≈ 0.703 µM) | 0.012
16 | CCCCc1ccc(-c2ccc(C(=O)N[C@@H](CCC(=O)O)C(=O)N[C@H](C(=O)N[C@@H](C)C(=O)N[C@@H](CCCCN)C(=O)N[C@@H](C)B(O)O)[C@@H](C)O)cc2)cc1 [Compound 163] ({Biphenylcarbonyl(4'-Bu)}-ETAK-boroAla) | 4 (≈ 5.3 µM) | 0.31 | >64 | 0.24
17 | CCCCc1ccc(-c2ccc(C(=O)N[C@@H](CO)C(=O)N[C@H](C(=O)N[C@@H](C)C(=O)N[C@@H](CCCCN)C(=O)N[C@@H](C)B(O)O)[C@@H](C)O)cc2)cc1 [Compound 164] ({Biphenylcarbonyl(4'-Bu)}-STAK-boroAla) | 1.4 (≈ 1.96 µM) | 0.12 | 1 (≈ 1.4 µM) | 0.044
18 | CCCCc1ccc(-c2ccc(C(=O)N[C@@H](CCCCN)C(=O)N[C@@H](CN)C(=O)N[C@@H](C)C(=O)N[C@@H](CC(C)C)C(=O)N[C@@H](C)B(O)O)cc2)cc1 [Compound 165] ({Biphenylcarbonyl(4'-Bu)}-K[Dap]AL-boroAla) | 0.63 (≈ 0.87 µM) | 0.41 | 0.63 (≈ 0.87 µM) | 0.12
19 | CCCCc1ccc(-c2ccc(C(=O)N[C@@H](CCCCN)C(=O)NC(C(=O)N[C@@H](C)C(=O)N[C@@H](CCCCN)C(=O)N[C@@H](C)B(O)O)c3ccc(OC)cc3)cc2)cc1 (stereo partly shown) [Compound 166] | 0.63 (≈ 0.772 µM) | 0.35 | 0.5 (≈ 0.613 µM) | 0.036
20 | C[C@H](NC(=O)[C@H](CCCCN)NC(=O)[C@H](C)NC(=O)[C@@H](NC(=O)[C@H](CN)NC(=O)c1ccc(-c2ccc(Cl)cc2)cc1)[C@@H](C)O)B1OC2C[C@@H]3C[C@@H](C3(C)C)[C@]2(C)O1 (stereo partly shown) [Compound 167] ({Benzoyl(4-(4-Cl-Ph))}-[Dap]TAK-X1) | 1.7 (≈ 2.06 µM) | 0.19 | 4 (≈ 4.85 µM) | 0.0052
21 | C[C@H](NC(=O)[C@H](CCCCN)NC(=O)[C@H](C)NC(=O)[C@H](CCCCN)NC(=O)[C@H](CN)NC(=O)c1ccc(-c2ccc(Cl)cc2)cc1)B1OC2C[C@@H]3C[C@@H](C3(C)C)[C@]2(C)O1 (stereo partly shown) [Compound 168] ({Benzoyl(4-(4-Cl-Ph))}-[Dap]KAK-X1) | 0.79 (≈ 0.928 µM) | 0.25 | 1 (≈ 1.17 µM) | 0.0054
22 | CCCCCCCCCC(=O)N[C@@H](CN)C(=O)N[C@H](C(=O)N[C@@H](C)C(=O)N[C@@H](CCCCN)C(=O)N[C@@H](C)B1OC2C[C@@H]3C[C@@H](C3(C)C)[C@]2(C)O1)[C@@H](C)O (stereo partly shown) [Compound 169] (Decanoyl-[Dap]TAK-X1) | 3.2 (≈ 4.19 µM) | 0.087 | 11 (≈ 14.4 µM) | 0.0039
